Data reported in patent US20060035295A1, “Method for determination of thymidine kinase 1 activity and the use thereof” (priority 2002, published 2006).
“Also recorded” adds a separate entry of the source.

Tests used:
thymidine phosphatase = biological target: T1, thymidine phosphatase (Homo sapiens, UniProt P19971); settings: in blood serum or in cell extracts; cited from earlier work
T1 sequence (P19971 11-482): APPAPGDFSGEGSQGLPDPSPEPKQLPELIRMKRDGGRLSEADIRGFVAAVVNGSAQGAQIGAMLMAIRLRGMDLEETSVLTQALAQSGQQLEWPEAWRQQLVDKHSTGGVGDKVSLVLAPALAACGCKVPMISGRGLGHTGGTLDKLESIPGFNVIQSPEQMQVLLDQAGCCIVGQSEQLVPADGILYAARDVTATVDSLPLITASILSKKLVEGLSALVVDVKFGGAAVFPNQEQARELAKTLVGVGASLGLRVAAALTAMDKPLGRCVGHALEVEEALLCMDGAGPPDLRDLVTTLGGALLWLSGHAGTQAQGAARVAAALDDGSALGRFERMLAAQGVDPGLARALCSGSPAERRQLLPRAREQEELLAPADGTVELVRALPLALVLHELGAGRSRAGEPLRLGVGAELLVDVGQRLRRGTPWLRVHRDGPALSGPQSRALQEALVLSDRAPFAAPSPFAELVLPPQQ

TK1 = biological target: T2, TK1 (Homo sapiens, UniProt P04183); settings: almost the same relative efficiency as Thymidine; cited from earlier work
T2 sequence (P04183 1-234): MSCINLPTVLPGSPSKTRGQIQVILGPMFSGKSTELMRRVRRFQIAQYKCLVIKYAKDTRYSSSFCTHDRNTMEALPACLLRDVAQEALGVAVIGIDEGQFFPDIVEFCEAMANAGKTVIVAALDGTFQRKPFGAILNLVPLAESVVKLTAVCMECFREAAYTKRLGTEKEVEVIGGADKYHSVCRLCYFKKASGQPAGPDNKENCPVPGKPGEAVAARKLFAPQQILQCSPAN

[1] = blood serum or cell extracts; cited from earlier work
serum TK = assay: Serum TK measurement with tritium labelled AZT; type: biochemical, human; settings: 16 clinical patient serum samples, 4 h at 37° C.
Protocol: In order to determine if serum TK can use AZT as substrate, an experiment was performed with 16 clinical patient serum samples (20 μl) mixed with 2 μL ^3H-AZT (Ci/mmol Moraveck Inc, USA) and 20 μL reaction mixture containing 10 mM Tris-HCl (pH 7.6), 5 mM ATP, 5 mM MgCl2, 3.5 mM NaF, 2 mM DTT. The assay was performed 4 h at 37° C. and the amount of AZTMP formed was determined by DE 51 ion exchange paper method as described (9). Previous experiments had established that this amount of serum gave a linear reaction during the time period tested.

TK2 = biological target: T3, TK2 (Homo sapiens, UniProt O00142); settings: cited from earlier work
T3 sequence (O00142 34-265): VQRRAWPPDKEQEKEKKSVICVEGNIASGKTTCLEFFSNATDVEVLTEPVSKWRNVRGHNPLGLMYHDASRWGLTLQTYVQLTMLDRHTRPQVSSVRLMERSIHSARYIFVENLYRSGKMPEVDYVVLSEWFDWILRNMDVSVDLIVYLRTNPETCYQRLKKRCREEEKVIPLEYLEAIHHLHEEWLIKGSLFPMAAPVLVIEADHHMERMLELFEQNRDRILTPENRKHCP

[2] = system: chicken anti-AZTMP antibodies; assay: Competitive assay for anti-AZTMP antibody specificity (AZXMP hapten coated plates); type: binding; settings: increasing amounts of competitor added to anti-AZTMP antibody solution; FIG. 2
Protocol: FIG. 2 Anti-AZTMP antibody specificity. Dose response curve for the competitive assay, according to example 1, between free AZTMP (left curve, denoted AZTMP) or AZT (right curve, denoted AZT) and Immobilised hapten, AZXMP (see FIG. 1) illustrating the specificity of chicken anti-AZTMP antibodies. Y-axis: original absorbance values (B) are normalised against values obtained in the absence of competitor (B0) to obtain (B/B0).
Antibody specificity and titre were evaluated using the competitive assay format described in example 4. To evaluate non-specific binding the antibody was substituted with diluent. Antibody specificity and titre was also evaluated using an assay whereby AZXMP hapten was coated to plates. AZXMP was conjugated to BSA using GA as linker and subsequently coated to the microtiter plates. In this assay, 100 μl of serially diluted antibody solutions were first incubated with AZXMP coated wells for 1 h at RT.
Wells of microtiter plates were washed three times with PBST (PBS plus 0,05% Tween 20). 100 μL of secondary antibody (diluted Horse Radish Peroxidase (HRP)-labelled anti-Goat IgG solution or anti-IgY antibody) was added and incubated for 30 min at room temperature. After 3 times washing with 250 μl PBST, bound antibody complexes were detected using TMB as substrate. The induced colour reaction was stopped after 5 min using 1M H2SO4 and detected at 450 nm. […]

phosphatases = assay: TK ELISA with UMP in substrate buffer to inhibit phosphatase activity; type: biochemical, human; settings: 1 mM UMP; two of four tested sera
Protocol: A potential problem for the analysis of a kinase activity in patient sera is the presence of phosphatase activity in the same sera to drive the reverse reaction (dephosphorylaUon). One way to inhibit the phosphatase is to include UMP in the substrate buffer to protect AZTMP from being dephosphorylated to AZT.
Substrate buffers containing 172 mM HEPES, 62 mM NaOH, 62 mM MgCl2*6H2O, 34 mM KCl, 142 mM Mannitol, 7,8 mM ATP, 12 mM DTE, and 25 μg/ml AZT were prepared—with variable concentrations UMP, i.e. 0, 0.1, 1 or 5 mM UMP.
A TK1 standard preparation 80 U/L (in heat inactivated fetal calf serum) was diluted in 9 g/L deionized-water, also used as zero standard level, to give further standard levels of 40, 20, 10, 5 and 2,5 U/L, respectively. Four human sera were also assayed. Two sera were from healthy blood donors and two sera from patients monitored with TK REA.
Next the TK reactions were performed by adding 50 μl of substrate buffer together with 50 μL of TK1 standard/or patient serum sample in non-coated microtitre wells.
The plate was incubated for 60 minutes at 37° C. […]
For the detection 50 μl were transferred to a plate which plate was coated with 1 μg/well rabbit anti chicken IgY (Sigma, MO, USA). […] The TMB reaction was stopped with 100 μl acid TMB stop and the absorbance read at 450 nm.

Row | Compound | substrate for thymidine phosphatase (thymidine phosphatase) | substrate quality for TK1 (TK1) | metabolic stability [1] | use as substrate by serum TK (serum TK) | phosphorylation by TK2 (TK2) | competition with immobilised AZXMP for antibody binding [2] | effect on TK values of tested sera (phosphatases)
1 | Cc1cn([C@H]2C[C@H](N=[N+]=[N-])[C@@H](CO)O2)c(=O)[nH]c1=O [AZT, 3′-azido-3′-deoxythymidine] | does not use AZT as a substrate | good substrate for TK1 | stable metabolites | can efficiently use AZT as substrate; also recorded: selective, efficient and stable substrates | low capacity to phosphorylate AZT | not able to compete out AZXMP | –
2 | Cc1cn([C@H]2C[C@H](N=[N+]=[N-])[C@@H](COP(=O)(O)O)O2)c(=O)[nH]c1=O [AZTMP, AZT-5′-monophosphate] | – | – | stable metabolites | – | – | – | –
3 | O=c1ccn([C@@H]2O[C@H](COP(=O)(O)O)[C@@H](O)[C@H]2O)c(=O)[nH]1 [UMP, Uridine monophosphate] | – | – | – | – | – | – | significantly higher TK values
